Results reported in paper PMC10289985, “Brigatinib pharmacokinetics in patients with chronic hepatic impairment” (Investigational New Drugs, 2023).
Where two headings read alike, the source gives them in different places.

How the values were obtained:
[1] = tested on: cytochrome P450 (CYP) 2C8 and CYP3A4; parameters: method as in ref 13 = [13]; 13. Alunbrig [package insert] (2022) Takeda Pharmaceuticals America, Inc., Lexington, MA; details: in vitro; cited from earlier work
[2] = Single oral 90-mg dose plasma PK in participants with chronic hepatic impairment and matched healthy participants; type: in vivo, human; details: for Tmax / half-life / AUC(0-t) / AUC(0-inf): human, plasma, po, 90 mg; for Tmax / half-life / AUC(0-t) / AUC(0-inf) / Tmax, median (range) / CL/Fu, unbound apparent oral clearance, geometric mean (geometric %CV) / Vz/Fu, unbound apparent volume of distribution, geometric mean (geometric %CV) / Cmax,u, geometric mean (geometric %CV): single oral 90 mg; for Tmax / Tmax, median (range): fasted; for Tmax: read-out: Tmax, median (range); for half-life: read-out: t1/2, terminal elimination half-life, geometric mean (geometric %CV) (converted); for AUC(0-t) / AUC(0-inf) / Cmax,u, geometric mean (geometric %CV): unbound; for AUC(0-t): read-out: AUC0−last,u, geometric mean (geometric %CV); for AUC(0-inf): read-out: AUC0−∞,u, geometric mean (geometric %CV)
Experimental: This open-label, parallel-group, inpatient, nonrandomized study was performed at 1 clinical study site, the Orlando Clinical Research Center (Orlando, FL, USA), and evaluated the PK of brigatinib after administration of a single oral 90-mg dose in participants with chronic hepatic impairment and in healthy participants with normal hepatic function. The study consisted of a screening period of up to 22 days and a single treatment and assessment period that included a 10-day (9-night) inpatient stay (Day −1 to Day 9). On the morning of Day 1, each participant received a single oral dose of 90 mg brigatinib under fasting conditions with approximately 240 mL of water. Fasting was required for approximately 10 hours before study drug dosing, for approximately 4 hours postdose, and for at least 8 hours before clinical laboratory tests. Meals were standardized for all participants. Water was permitted ad libitum except for the period between approximately 1 hour before and 1 hour after dosing. Participants remained in the clinic through 192 hours postdose for PK sample collection and were discharged from the clinical research site on Day 9.
Blood samples were collected before brigatinib administration (predose) and at 0.5, 1, 1.5, 2, 2.5, 3, 4, 6, 8, 12, 24, 36, 48, 72, 96, 120, 144, 168, and 192 hours following brigatinib administration to measure brigatinib plasma concentrations. Samples to assess brigatinib plasma protein binding were collected at 2, 8, and 24 hours postdose.
Plasma samples were analyzed for brigatinib concentrations using a previously reported dual-range assay with a lower limit of quantitation of 0.100 ng/mL and an upper limit of quantitation of 2500 ng/mL [14].
The PK-evaluable population was defined as participants who received the single dose of brigatinib, had no major protocol deviations that affected the PK analyses, and had sufficient data to calculate PK parameters. Individual participant brigatinib plasma concentration-time profiles were analyzed via noncompartmental analysis using Phoenix WinNonLin version 6.4 (Certara, Inc., Princeton, NJ) to calculate plasma PK parameters. Plasma PK parameters calculated for brigatinib included maximum observed plasma concentration (Cmax), time to first maximum observed plasma concentration (Tmax), area under the plasma concentration-time curve from time 0 to the time of the last measurable concentration (AUC0−last), area under the plasma concentration-time curve from time 0 to infinity (AUC0−∞), terminal elimination half-life (t1/2), apparent oral clearance (CL/F), and apparent volume of distribution during the terminal disposition phase (Vz/F). The fraction of unbound brigatinib in plasma was calculated using the following formula: % free (unbound) = [free brigatinib concentration measured in buffer after dialysis] / [total brigatinib concentration measured in plasma] × 100. Unbound brigatinib PK parameters were derived from the following formula (except for the unbound CL/F and unbound Vz/F, which were calculated as total CL/F or total Vz/F divided by the individual participant’s overall mean fraction unbound): unbound PK parameter = (PK parameter based on total concentrations) × (individual participant’s overall mean fraction unbound value).
Descriptive statistics, including mean, standard deviation (SD), percent coefficient of variation (%CV), and median, minimum, and maximum values, were calculated for each time point for plasma brigatinib concentrations for the healthy participant and each Child-Pugh group. Arithmetic means, SD, %CV, median, minimum, and maximum values, and the number of observations were calculated for the PK parameters. Geometric mean and geometric %CV were derived for all parameters, except Tmax, which was reported as median (minimum–maximum). Statistical comparisons of unbound brigatinib PK parameters were made among the hepatic function groups (ie, healthy participants, Child-Pugh classes A, B, and C) using an analysis of variance. […]

[3] = mild (Child-Pugh A) vs normal hepatic function
[4] = moderate (Child-Pugh B) vs normal hepatic function
[5] = severe (Child-Pugh C) vs normal hepatic function

## COc1cc(N2CCC(N3CCN(C)CC3)CC2)ccc1Nc1ncc(Cl)c(Nc2ccccc2P(C)(C)=O)n1 [brigatinib]
[1]
  metabolizing enzymes: primarily metabolized by cytochrome P450 (CYP) 2C8 and CYP3A4
[2]; Child-Pugh C vs healthy participants with normal hepatic function
  geometric mean AUC0−last,u higher than in healthy participants: 34%
[2]; mild (Child-Pugh A) hepatic impairment (n=6)
  Tmax: 1.75 h
[2]; severe (Child-Pugh C) hepatic impairment (n=6)
  Tmax: 0.5 h
[2]; mild (Child-Pugh A) (n=6)
  half-life: 47 h
  AUC(0-t): 522 ng·h/mL
  AUC(0-inf): 539 ng·h/mL
  CL/Fu, unbound apparent oral clearance, geometric mean (geometric %CV): 167 (24.9) L/h
  Vz/Fu, unbound apparent volume of distribution, geometric mean (geometric %CV): 11,300 (45.8) L
  Cmax,u, geometric mean (geometric %CV): 28.7 (9.5) ng/mL
[2]; moderate (Child-Pugh B) (n=6)
  half-life: 48.7 h
  AUC(0-t): 578 ng·h/mL
  AUC(0-inf): 601 ng·h/mL
  CL/Fu, unbound apparent oral clearance, geometric mean (geometric %CV): 150 (39.8) L/h
  Vz/Fu, unbound apparent volume of distribution, geometric mean (geometric %CV): 10,500 (29.5) L
  Cmax,u, geometric mean (geometric %CV): 27.8 (24.8) ng/mL
[2]; normal hepatic function (n=9)
  half-life: 47.6 h
  AUC(0-t): 581 ng·h/mL
  AUC(0-inf): 603 ng·h/mL
  Tmax, median (range): 2.00 (1.00‒6.00) h
  CL/Fu, unbound apparent oral clearance, geometric mean (geometric %CV): 149 (25.0) L/h
  Vz/Fu, unbound apparent volume of distribution, geometric mean (geometric %CV): 10,200 (31.0) L
  Cmax,u, geometric mean (geometric %CV): 30.3 (27.2) ng/mL
[2]; severe (Child-Pugh C) (n=6)
  half-life: 51 h
  AUC(0-t): 781 ng·h/mL
  AUC(0-inf): 829 ng·h/mL
  CL/Fu, unbound apparent oral clearance, geometric mean (geometric %CV): 109 (20.0) L/h
  Vz/Fu, unbound apparent volume of distribution, geometric mean (geometric %CV): 7,990 (33.2) L
  Cmax,u, geometric mean (geometric %CV): 50.0 (34.5) ng/mL
[2]; [3]
  AUC0−last,u geometric LSM ratio (90% CI): 89.77 (70.37–114.52) %
  AUC0−∞,u geometric LSM ratio (90% CI): 89.32 (69.79–114.31) %
  Cmax,u geometric LSM ratio (90% CI): 94.75 (75.36–119.12) %
[2]; [4]
  AUC0−last,u geometric LSM ratio (90% CI): 99.41 (77.93–126.82) %
  AUC0−∞,u geometric LSM ratio (90% CI): 99.55 (77.78–127.41) %
  Cmax,u geometric LSM ratio (90% CI): 92.01 (73.18–115.68) %
[2]; [5]
  AUC0−last,u geometric LSM ratio (90% CI): 134.38 (105.34–171.43) %
  AUC0−∞,u geometric LSM ratio (90% CI): 137.41 (107.37–175.86) %
  Cmax,u geometric LSM ratio (90% CI): 165.26 (131.44–207.78) %
[2]; moderate (Child-Pugh B) hepatic impairment (n=6)
  Tmax, median (range): 2.00 (0.50‒3.00) h
